We go through 16 molecules from patent US5843750A, “Sorbitol kinase, process for producing the same, and substantially pure microorganism” (priority 1994, dated 1998).

Data set [1] concerns sorbitol-6-phosphate dehydrogenase. The class given is biochemical, Comamonas sp. SY-77-1. To be noted: for Relateive activity: 1 mM metal ion on sorbitol-6-phosphate dehydrogenase, None = 100, 10 min; for Relative activity (5): substrate specificity of sorbitol-6-phosphate dehydrogenase, substance used as substrate. As for the experimental part:
Reaction mixture 1 ml consisting of 0.2M Tris-HCl buffer solution (pH 8.0) 0.25 ml, 0.1M sorbitol-6-phosphate 0.2 ml, 10 mM NAD 0.1 ml, 100 U/ml diaphorase (Asahi Chemical Industry Co.) 0.05 ml, 0.25% NTB (nitrotetrazolium blue) 0.1 ml, 10% Triton X-100 0.01 ml and distilled water 0.29 ml was pre-heated at 37° C. for 1 minute. 0.02 ml of enzyme solution was added thereto and incubated for 10 minutes.
0.1N HCl 2 ml was added to stop the reaction, and within 5 minutes optical absorption of the reaction mixture was measured using pass length 1.0 cm cell at 550 nm (As). Optical density of the blank solution of distilled water 0.02 ml in place of the enzyme solution was measured by the same procedure (Ab). Enzyme activity was measured by the difference (As-Ab) between the optical density of the enzyme solution (As) and that of the blank (Ab). A unit of enzyme is defined as an enzyme amount which produces 1μ mole of reduced NAD at 37° C. for 1 minute. Equation is as follows.
Enzyme activity (U/ml)=(As-Ab)×0.795×enzyme dilution rate

Data set [2] has as its target T1, sorbitol kinase (Enterobacter ludwigii, UniProt A0AAX3LD49). It counts as biochemical, Erwinia sp. SK-472-20. Also on record: SK-472-20. The method, then:
(§1) One milliliter of a reaction mixture consisting of 0.2M Tris-HCl buffer solution (pH 8.5) 0.2 ml, 0.1M ATP 0.02 ml, 0.1M MgCl2 0.02 ml, 100 U/ml sorbitol-6-phosphate dehydrogenase (refer to referential example) 0.05 ml, 10 mM NAD 0.1 ml, 100 U/ml diaphorase (Asahi Chemical Ind. Co.) 0.05 ml, 0.25% NTB 0.1 ml, 1M sorbitol 0.1 ml, 10% Triton X-100 0.01 ml and distilled water 0.3 ml was pre-heated at 37° C. for 1 minute, and the enzyme solution 20 μl was added thereto, then the mixture was incubated for 10 minutes.
(§2) Reaction was terminated by adding 0.1N HCl 2 ml and optical density of the mixture was measured using 1.0 cm cell at 550 nm within 5 minutes (As). Also optical density of distilled water 20 μl in place of the enzyme solution was measured in the same manner as above as a blank test (Ab). Enzymatic activity is determined by difference in the absorption between the optical density of the enzyme solution (As) and the blank test (Ab), i.e. (As-Ab). A unit of enzyme activity is defined as an amount of enzyme which generate 1 μm of reduced NAD in one minutes at 37° C. and calculated by the following equation.
Enzyme activity (U/ml)=(As-AB)×0.795×dilution rate of enzyme

Data set [3] deals with T1, sorbitol kinase. The class given is biochemical, Erwinia sp. SK-472-20 gene expressed in E.coli. Set-up: no tag mentioned. To be noted: for Relative activity on substrate: sorbitol set at 100%. As for the experimental part:
A reaction mixture 1 ml consisting of 100 mM Tris-HCl buffer solution (pH 8.5), 2 mM ATP, 2 mM MgCl2, 5 unit/ml sorbitol-6-phosphatedehydrogenase (refer to referential example 3), 1 mM NAD, 5 units/ml diaphorase (Asahi Chem. Ind. Co.), 0.025% nitrotetrazolium blue, 100 mMD-sorbitol and 0.1% Triton X-100 was incubated with the aliqluot diluted sonicated microbial cells 20 μl at 37° C. for 10 minutes. Reaction was stopped by adding 0.1N HCl 2.0 ml and the optical absorption at 550 nm was measured for determination of sorbitol kinase activity. For control study, sonicated E.coli DH1 harboring pUC118 was treated by the same way as above to determine activity of sorbitol kinase. […] Accordingly, the transformant having sorbitol kinase activity was confirmed. […] SK-472-20, consequently the physico-chemical properties of expressed protein was confirmed.

Data set [4] can be described thus: Optimum pH/temperature, pH stability and heat stability of sorbitol kinase. It counts as physicochemical, Erwinia sp. SK-472-20. As for the experimental part:
as §1, §2
Optimum pH is measured by the above enzyme assay method. In FIG. 1, 100 mM phosphate buffer is used for pH 6.0-8.0 (-.largecircle.-); 100 mM Tris-HCl buffer for pH 7.0-9.0 (-.circle-solid.-); and 100 mM glycine-sodium hydroxide buffer for pH 9.0-10.5 (-.quadrature.-). Optimum pH is 8.5-9.5.
100 mM buffer solutions containing sorbitol kinase 0.5 U/ml were treated at 60° C. for 15 minutes, and remaining activity was measured by the above enzyme assay method. In FIG. 2, 100 mM acetate buffer is used for pH 4.5-6.0 (-.largecircle.-); 100 mM phosphate buffer for pH 6.0-8.0 (-.circle-solid.-); 100 mM Tris-HCl buffer for pH 7.0-8.5 (-.quadrature.-); and 100 mM glycine-sodium hydroxide buffer for pH 9.0-10.5 (-.box-solid.-). Most preferable stability is observed at pH 6.5-10.0.
Optimum temperature of the enzyme was measured by changing temperature range at 37° C.-60° C. according to the above assay method. Result is shown in FIG. 3, in which optimum temperature of the present enzyme is approx. 50° C.
100 mM Tris-HCl buffer solution (pH 8.5) containing sorbitol kinase 0.5 U/ml was treated at various temperatures for 15 minutes, and remaining activity was measured by the above enzyme assay method. Results are shown in FIG. 4 in which the enzyme is stable at least up to 60° C.

A short description of data set [5]: Isoelectric point of sorbitol kinase (electrophoresis using carrier ampholytes). The class given is physicochemical, Erwinia sp. SK-472-20. The text has this:
4.8±0.5 (electrophoresis using carrier ampholytes)

Data set [6] is described as follows: Physico-chemical properties of sorbitol kinase produced by the transformant. To be noted: enzyme produced by transformant. It counts as physicochemical, Erwinia sp. SK-472-20 gene expressed in E.coli.
Where [7] appears, read: metal ion or chemical modifier 2 mM in the presence of 2 mM magnesium ion, None = 100.
The mark [8] stands for this setting: enzyme produced by transformant.
The mark [9] stands for this setting: substrate specificity of sorbitol kinase, substance used as substrate.

Like-named read-outs stand apart in the source and are kept apart here. A value given as a limit tells only on which side of the number the result lay.

T1 sequence (A0AAX3LD49 entry or part of it): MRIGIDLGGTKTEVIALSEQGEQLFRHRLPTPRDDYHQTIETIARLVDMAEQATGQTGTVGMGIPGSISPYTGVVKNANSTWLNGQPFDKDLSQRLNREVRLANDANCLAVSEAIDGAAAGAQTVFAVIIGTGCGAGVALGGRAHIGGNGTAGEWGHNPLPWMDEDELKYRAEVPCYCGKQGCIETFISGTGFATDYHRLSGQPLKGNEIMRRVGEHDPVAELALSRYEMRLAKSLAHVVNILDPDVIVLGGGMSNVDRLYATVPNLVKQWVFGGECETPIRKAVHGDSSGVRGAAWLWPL

In data set [1], `[Ca+2].[Cl-].[Cl-]` [CaCl2] gave a Relateive activity of 100. Further, the “Relative activity (%)” value in data set [2] (setting [7]) turned out to be 44.6%. Further, the “Effect on enzyme activity (in words)” value in data set [3] (setting [8]) was “activated”.

In turn, `[Cl-].[Cl-].[Co+2]` [CoCl2] returned a Relateive activity in data set [1] of 100. In data set [2] (2 mM, Table 2), the “Effect on sorbitol kinase activity (in words)” value was “inhibited”. Moreover, in data set [2] (setting [7]), the “Relative activity (%)” value is on record as 17.3%. In data set [3] (setting [8]), the “Effect on enzyme activity (in words)” value was “inhibited”.

Molecule `[Cl][Cu][Cl]` [CuCl2] showed a Relateive activity in data set [1] of 0. In data set [1] (1 mM metal ions), the “Effect on sorbitol-6-phosphate dehydrogenase activity (in words)” value is recorded as “Strong inhibition”. Besides, the “Effect on sorbitol kinase activity (in words)” value in data set [2] (2 mM, Table 2) is “inhibited”. In addition, the “Relative activity (%)” value in data set [2] (setting [7]) is listed as 0%. Further, the “Effect on enzyme activity (in words)” value in data set [3] (setting [8]) was “inhibited”.

As to `O=C(O)CN(CCN(CC(=O)O)CC(=O)O)CC(=O)O` [EDTA], the “Effect on sorbitol kinase activity (in words)” value in data set [2] was “inhibited”. Besides, in data set [3], the “Effect on enzyme activity (in words)” value was “inhibited”.

On to `O=C(CO)[C@@H](O)[C@H](O)[C@H](O)CO` [Fructose], for which, in data set [1], the “Relative activity (5)” value is 0. Also, the “Relative activity on substrate” value in data set [3] (setting [8]) is reported as 0%.

Regarding `O[C@H]1[C@H](O)[C@@H](O)[C@H](O)[C@@H](O)[C@H]1O` [Inositol], the “Relative activity on substrate” value in data set [3] (setting [8]) is listed as 0%.

Consider `OC[C@H]1O[C@@H](O[C@H]2[C@H](O)[C@@H](O)C(O)O[C@@H]2CO)[C@H](O)[C@@H](O)[C@H]1O` (some centres unmarked) [Lactose], for which the “Relative activity (5)” value in data set [1] is recorded as 0. Besides, in data set [3] (setting [8]), the “Relative activity on substrate” value turned out to be 0%.

For `OC[C@H]1O[C@H](O[C@H]2[C@H](O)[C@@H](O)[C@H](O)O[C@@H]2CO)[C@H](O)[C@@H](O)[C@@H]1O` [Maltose], in data set [3] (setting [8]), the “Relative activity on substrate” value is listed as 0%.

`[Cl][Ni][Cl]` [NiCl2]: the Relateive activity in data set [1] was 100. In addition, the “Effect on sorbitol kinase activity (in words)” value in data set [2] (2 mM, Table 2) is on record as “inhibited”. Also, the “Relative activity (%)” value in data set [2] (setting [7]) is reported as 14.5%. Besides, the “Effect on enzyme activity (in words)” value in data set [3] (setting [8]) was “inhibited”.

On to `OC[C@H]1O[C@@](CO)(O[C@H]2O[C@H](CO)[C@@H](O)[C@H](O)[C@H]2O)[C@@H](O)[C@@H]1O` [Saccharose], for which, in data set [1], the “Relative activity (5)” value turned out to be 0. In addition, the “Relative activity on substrate” value in data set [3] (setting [8]) is 0%.

Consider `OC[C@@H](O)[C@@H](O)[C@H](O)[C@@H](O)CO` [Sorbitol], for which the “Relative activity on substrate” value in data set [3] (setting [8]) is given as 100%.

For `C=C(OP(=O)(O)O)C(=O)O` [phosphoenolpyruvate], the “Utilization as phosphate donor” value is “No substantial utilization” in data set [2] (phosphoenolpyruvate used in place of ATP in the enzyme assay) and “substantially not” in data set [3] (setting [8]).

Take Galactose: the “Relative activity (5)” value in data set [1] is given as 0. In addition, the “Relative activity (%)” value in data set [2] (setting [9]) was found to be 0%. Further, the “Relative activity on substrate” value in data set [3] (setting [8]) is recorded as 0%.

Take Glucose: in data set [1], the “Relative activity (5)” value is 0. In data set [2] (setting [9]), the “Relative activity (%)” value turned out to be 0%. Besides, the “Relative activity on substrate” value in data set [3] (setting [8]) is listed as 0%.

Take Mannose: the “Relative activity (5)” value in data set [1] came to 0. In data set [2] (setting [9]), the “Relative activity (%)” value was found to be 0%. In addition, in data set [3] (setting [8]), the “Relative activity on substrate” value amounted to 0%.

B1: sorbitol kinase: ATP-utilizing sorbitol kinase of Erwinia sp. SK-472-20, stable up to 60° C., amino acids 1 to 313 of SEQ ID NO: 1; also produced by E.coli transformant (protein)
chain: MRIGIDLGGTKTEVIALSEQGEQLFRHRLPTPRDDYHQTIETIARLVDMAEQATGQTGTVGMGIPGSISPYTGVVKNANSTWLNGQPFDKDLSQRLNREVRLANDANCLAVSEAIDGAAAGAQTVFAVIIGTGCGAGVALGGRAHIGGNGTAGEWGHNPLPWMDEDELKYRAEVPCYCGKQGCIETFISGTGFATDYHRLSGQPLKGNEIMRRVGEHDPVAELALSRYEMRLAKSLAHVVNILDPDVIVLGGGMSNVDRLYATVPNLVKQWVFGGECETPIRKRCTGTPAACAAPRGSGRYSHSPSPYVRGAG
As for B1, in data set [4] (100 mM Tris-HCl pH 8.5, 0.5 U/ml, 15 minutes, remaining activity, FIG. 4), the “Heat stability (stable up to)” value was at least 60 °C. The “Optimum pH” value in data set [4] (100 mM phosphate, Tris-HCl, glycine-sodium hydroxide buffers, FIG. 1) was 8.5-9.5. For the same molecule, the “pH stability (most preferable stability)” value in data set [4] (0.5 U/ml in 100 mM buffers, 60° C. for 15 minutes, remaining activity, FIG. 2) is on record as 6.5-10.0. The Optimum temperature result in data set [4] (range 37° C.-60° C., FIG. 3) was “approx. 50 °C”. For the same molecule, in data set [5], the Isoelectric point is on record as 4.8±0.5. Besides, in data set [6], the “Heat stability (stable up to)” value was “up to 60 °C”, the Isoelectric point is recorded as 4.80±0.5, the “Optimum pH” value was 8.5-9.5 and the pH stability was 6.5-10.0.
